Measurements taken from patent US20040198791A1 (priority 2001, published 2004).

Target: T1, human NPY Y5 receptors (Homo sapiens, UniProt Q15761)
T1 construct: expressed in transfected cells; host or cells: HEK-293
T1 sequence (Q15761 1-445): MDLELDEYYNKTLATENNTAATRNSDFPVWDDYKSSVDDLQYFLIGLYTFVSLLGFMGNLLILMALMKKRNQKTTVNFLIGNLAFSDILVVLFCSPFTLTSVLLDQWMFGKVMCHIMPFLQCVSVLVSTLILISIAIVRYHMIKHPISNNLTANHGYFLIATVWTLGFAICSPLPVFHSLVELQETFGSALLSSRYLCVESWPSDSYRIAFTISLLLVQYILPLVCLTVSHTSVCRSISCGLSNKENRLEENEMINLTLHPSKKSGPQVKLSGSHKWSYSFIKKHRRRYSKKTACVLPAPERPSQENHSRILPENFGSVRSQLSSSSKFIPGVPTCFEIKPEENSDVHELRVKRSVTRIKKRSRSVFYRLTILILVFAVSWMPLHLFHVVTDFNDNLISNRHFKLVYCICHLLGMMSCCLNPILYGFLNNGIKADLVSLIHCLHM
Experiment: Inhibition of [125I]-PYY binding to HEK-293 cells expressing human NPY Y5 receptors
Conditions: HEK-293 cells stably expressing human NPY Y5 receptors, 25° C., 120 minutes
Protocol: Effects on binding ability of PYY(peptide YY) to HEK(human embryo kidneys)-293 cells transducted with human NPY(neuropeptide Y) Y5 receptors
HEK-293 cells, which stably manifest human NPY Y5 receptors, were incubated at 25° C. for 120 minutes in the […] of test compounds in an assay medium containing 0.1 mM PMSF (phenylmethylsulfonyl fluoride), 0.05% bacitracin, 0.1% BSA (bovine serum albumin) and 25mM Tris HCl (pH 7.4). The non-specific binding was measured in the presence of […] non-labelled PYY. The reaction was terminated by rapidly filtering with Wattmann GF/C glass fiber filter with using the cell harvester. After the glass fiber filter was washed with 150 mM sodium chloride and 25 mM Tris HCl buffer solution (pH 7.4) containing 0.01% BSA, radioactivity of the […] was measured by using the γ-counter. The IC50 value of the test compound was determined by the inhibition of [^125I]-PYY binding obtained by the test compound at various concentrations. The test compound is represented with the Example number in which the compound was obtained.

SMILES | IC50
COc1ccc2c(c1)-c1c(nc(-c3ccccc3)n1O)CCC2 [2 (1), 9-Methoxy-2-phenyl-5,6-dihydro-4H-1,3-diazabenzo[e]azulen-1-ol] | 24 nM
COc1ccc2c(c1)-c1nc(-c3ccccc3)[nH]c1CCC2 [8 (1), 9-Methoxy-2-phenyl-3,4,5,6-tetrahydro-1,3-diazabenzo[e]azulene] | 25 nM
COc1ccc2c(c1)-c1nc(-c3ccccn3)[nH]c1CCC2 [8 (3), 9-Methoxy-2-(pyridin-2-yl)-3,4,5,6-tetrahydro-1,3-diazabenzo[e]azulene] | 120 nM
COc1ccc2c(c1)-c1nc(-c3ccccc3)[nH]c1CC2 [8 (4), 8-Methoxy-2-phenyl-4,5-dihydronaphtho[1,2-d]imidazole] | 51 nM
c1ccc(-c2nc3c([nH]2)-c2ccccc2CCC3)nc1 [8 (6), 2-(Pyridin-2-yl)-5,6-dihydro-4H-1,3-diazabenzo[e]azulene] | 130 nM
c1ccc2c(c1)CCCc1nc(-c3ccc4c(c3)OCCO4)[nH]c1-2 [8 (9), 2-(1,4-Benzodioxan-6-yl)-5,6-dihydro-4H-1,3-diazabenzo[e]azulene] | 180 nM
CC(C)n1nc(-c2nc3c([nH]2)-c2ccccc2CCC3)ccc1=O [8 (10), 2-(1-Isopropyl-6-oxo-1,6-dihydropyridazin-3-yl)-5,6-dihydro-4H-1,3-diazabenzo[e]azulene] | 260 nM
c1ccc2c(c1)CCCc1[nH]c(-c3c[nH]cn3)nc1-2 [8 (11)] | 550 nM
Cc1ccc2c(c1)-c1[nH]c(-c3ccccn3)nc1CCC2 [8 (12), 2-(Pyridin-2-yl)-5,6-dihydro-9-methyl-4H-1,3-diazabenzo[e]azulene] | 32 nM
c1ccc(-c2nc3c([nH]2)CCOc2ccccc2-3)cc1 [8 (15), 2-Phenyl-4,5-dihydro-3H[l]benzoxepino[4,5-d]imidazole] | 61 nM
COc1ccc2c(c1)-c1c(nc(-c3ccncc3)n1O)CCC2 [Example 1, 9-methoxy-2-(pyridin-4-yl)-5,6-dihydro-4H-1,3-diazabenzo[e]azulen-1-ol] | 73 nM
Fc1ccc2c(c1)-c1[nH]c(-c3ccccn3)nc1CCC2 [Example 9, 9-fluoro-2-(pyridin-2-yl)-5,6-dihydro-4H-1,3-diazabenzo[e]azulene] | 46 nM

Molecules with a lower IC50, results first:

IC50 | SMILES
6.3 nM | COc1ccc2c(c1)-c1nc(-c3cccnc3)[nH]c1CCC2 [8 (2), 9-Methoxy-2-(pyridin-3-yl)-3,4,5,6-tetrahydro-1,3-diazabenzo[e]azulene]
5.8 nM | c1ccc(-c2nc3c([nH]2)-c2ccccc2CCC3)cc1 [8 (5), 2-Phenyl-5,6-dihydro-4H-1,3-diazabenzo[e]azulene]
7.3 nM | c1cncc(-c2nc3c([nH]2)-c2ccccc2CCC3)c1 [8 (7), 2-(Pyridin-3-yl)-5,6-dihydro-4H-1,3-diazabenzo[e]azulene]
20 nM | c1ccc2c(c1)CCCc1nc(-c3ccncc3)[nH]c1-2 [8 (8), 2-(Pyridin-4-yl)-5,6-dihydro-4H-1,3-diazabenzo[e]azulene]
2.3 nM | Cc1ccc2c(c1)-c1[nH]c(-c3cccnc3)nc1CCC2 [8 (13), 2-(Pyridin-3-yl)-5,6-dihydro-9-methyl-4H-1,3-diazabenzo[e]azulene]
6.4 nM | Cc1ccc2c(c1)-c1[nH]c(-c3ccncc3)nc1CCC2 [8 (14), 2-(Pyridin-4-yl)-5,6-dihydro-9-methyl-4H-1,3-diazabenzo[e]azulene]
6.9 nM | Fc1ccc2c(c1)-c1nc(-c3cccnc3)[nH]c1CCC2 [10 (1), 9-Fluoro-2-(pyridin-3-yl)-5,6-dihydro-4H-1,3-diazabenzo[e]azulene]
13 nM | Fc1ccc2c(c1)-c1[nH]c(-c3ccncc3)nc1CCC2 [10 (2), 9-Fluoro-2-(pyridin-4-yl)-5,6-dihydro-4H-1,3-diazabenzo[e]azulene]
13 nM | COc1ccc2c(c1)-c1nc(-c3ccncc3)[nH]c1CCC2 [Example 7, 9-methoxy-2-(pyridin-4-yl)-3,4,5,6-tetrahydro-1,3-diazabenzo[e]azulene]
1.7 nM | Clc1ccc2c(c1)-c1[nH]c(-c3ccccc3)nc1CCC2 [Example 11, 9-chloro-2-phenyl-5,6-dihydro-4H-1,3-diazabenzo[e]azulene]
